Assay results published in patent US20240360177A1, “PEPTIDES WITH ANTIMICROBIAL ACTIVITIES” (priority 2021, published 2024).
Converted amounts (≈) assume the structure as drawn. Read-outs that look alike come from different tables or passages of the source. Starred links: 1 amine or outer side, 2 acyl side, 3 side chain; linkers in the order of their positions; H or OH if unused. Non-standard residues stand in square brackets, D forms with d. Residues, ends and D or L forms follow the SMILES beside them. NH(CH2)9CO = O=C(CCCCCCCCCN[*:1])[*:2]; Aoc = NCCCCCCCC(=O)O

Assays:
Fusarium spp. = conditions: 48 h
[1] = tested on: Klebsiella pneumoniae ATCC 13883; assay type: cell-based
in vitro = conditions: human, EC50 cytotoxicity in HepG2, intracellular ATP assay
C. auris = conditions: 24 h
[2] = tested on: Mycobacterium smegmatis ATCC 700084; assay type: cell-based; conditions: ATCC 700084, 48 h
C. krusei = conditions: 24 h
[3] = tested on: Salmonella senftenberg CDC 127; assay type: cell-based
Scedosporium spp. = conditions: 72 h
[4] = tested on: Staphylococcus aureus ATCC 29213; assay type: cell-based
[5] = tested on: Escherichia coli ATCC 25922; assay type: cell-based
[6] = Acute toxicity in CD-1 mice; conditions: both sexes, mouse, in vivo
Procedure: Acute toxicity and subacute toxicity of ACPs were tested in CD-1 mice. In the acute toxicity study, groups of CD-1 male or female mice were administered single intravenous or intraperitoneal escalating doses (n=2-3 per dose) of the peptides dissolved in normal saline for injection or in phosphate buffered saline. The intravenous dose was administered via tail vein with a slow push over 15-20 seconds. Doses were escalated based on tolerability.

Coccidioides species = conditions: N = 3 strains; 48-72 hrs; >50% inhibition
C. tropicalis = conditions: 24 h
C. gattii = conditions: 72 h
C. albicans = conditions: 24 h
[7] = tested on: Microsporum gypseum ATCC 14683
[8] = tested on: Pseudomonas aeruginosa ATCC 27853; assay type: cell-based
Paecilomyces variotii = conditions: 48 h
[9] = tested on: Shigella sonnei MMX 10772; assay: Antibacterial broth microdilution MIC, Shigella sonnei; assay type: cell-based; conditions: CAMHB
C. dubliniensis = conditions: 24 h
[10] = tested on: Mycobacterium fortuitum ATCC 110; assay: Antibacterial broth microdilution MIC, Mycobacterium fortuitum; assay type: cell-based; conditions: 48 hrs
C. parapsilosis = conditions: 24 h
Rhizopus arrhizus = conditions: 24 h
C. glabrata = conditions: 24 h
C. neoformans = conditions: 72 h
[11] = tested on: Trichophyton rubrum ATCC MYA-4438
[12] = tested on: Epidermophyton floccosum ATCC 52066

In the case of `N=C(N)NCCC[C@@H](N)C(=O)N[C@@H](CCCNC(=N)N)C(=O)N[C@H](CCCNC(=N)N)C(=O)NCCCCCCCCCC(=O)N[C@H](CCCNC(=N)N)C(=O)N[C@@H](CCCNC(=N)N)C(=O)N[C@H](CCCNC(=N)N)C(=O)NCCCCCCCC(=O)N[C@H](CCCNC(=N)N)C(=O)N[C@@H](CCCNC(=N)N)C(=O)N[C@H](CCCNC(=N)N)C(=O)N[C@@H](CCCNC(=N)N)C(=O)NCCCCCCCC(=O)N[C@H](CCCNC(=N)N)C(=O)N[C@@H](CCCNC(=N)N)C(=O)N[C@H](CCCNC(=N)N)C(=O)N[C@@H](CCCNC(=N)N)C(=O)O` [SEQ ID NO: 32, rRr-(Ada)-rRr-(Aoa)-rRrR-(Aoa)-rRrR] (H-[dR]R[dR][NH(CH2)9CO][dR]R[dR][Aoc][dR]R[dR]R[Aoc][dR]R[dR]R-OH), the “MIC Range Fusarium spp.” value (Fusarium spp.) is reported as 0.25 to 1 µg/mL, the “MIC Klebsiella pneumoniae” value [1] is reported as 4 µg/mL (≈ 1.51 µM) and the EC50 (in vitro) is reported as > 300 µg/mL. The “MIC C. auris” value (C. auris) was 4 µg/mL (≈ 1.51 µM), the “MIC Mycobacterium smegmatis” value [2] was 0.5 µg/mL (≈ 0.188 µM) and the “MIC Range Lomentospora prolificans” value (Lomentospora prolificans) was 0.25 µg/mL (≈ 0.0941 µM). For the same molecule, the “MIC C. krusei” value (C. krusei) was 0.5 µg/mL (≈ 0.188 µM), the “MIC Salmonella senftenberg” value [3] was 4 µg/mL (≈ 1.51 µM) and the “MIC Range Scedosporium spp.” value (Scedosporium spp.) was ≤0.12 µg/mL. The “MIC Staphylococcus aureus” value [4] was 8 µg/mL (≈ 3.01 µM), the “MIC Escherichia coli” value [5] was 2 µg/mL (≈ 0.753 µM) and the MTD ([6]; single IP dose, read-out: Tolerated single intraperitoneal dose) was 10 to 15 mg/kg. The MTD ([6]; single IV dose via tail vein, read-out: Tolerated single intravenous dose) was 5 to 7.5 mg/kg, the “MIC Range Coccidioides species” value (Coccidioides species) was 0.25 to 0.5 µg/mL and the “MIC C. tropicalis” value (C. tropicalis) was 0.5 µg/mL (≈ 0.188 µM). For the same molecule, the “MIC C. gattii” value (C. gattii) was 0.25 µg/mL (≈ 0.0941 µM), the “MIC C. albicans” value (C. albicans) was 1 µg/mL (≈ 0.376 µM) and the “MIC Microsporum gypseum” value [7] was >64 µg/mL. For the same molecule, the “MIC Pseudomonas aeruginosa” value [8] was 16 µg/mL (≈ 6.02 µM), the “MIC Range Paecilomyces variotii” value (Paecilomyces variotii) was 0.25 µg/mL (≈ 0.0941 µM) and the “MIC Shigella sonnei” value [9] was 4 µg/mL (≈ 1.51 µM). For the same molecule, the “MIC C. dubliniensis” value (C. dubliniensis) was 1 µg/mL (≈ 0.376 µM), the “MIC Mycobacterium fortuitum” value [10] was 2 µg/mL (≈ 0.753 µM) and the “MIC C. parapsilosis” value (C. parapsilosis) was 0.25 µg/mL (≈ 0.0941 µM). The “MIC Range Rhizopus arrhizus” value (Rhizopus arrhizus) was 0.5 to 8 µg/mL, the “MIC C. glabrata” value (C. glabrata) was 0.5 µg/mL (≈ 0.188 µM) and the “MIC C. neoformans” value (C. neoformans) was 0.25 µg/mL (≈ 0.0941 µM). For the same molecule, the “MIC Trichophyton rubrum” value [11] was 8 µg/mL (≈ 3.01 µM) and the “MIC Epidermophyton floccosum” value [12] was 4 µg/mL (≈ 1.51 µM).
